For the test, the system named is P. falciparum 3D7 growth, pLDH absorbance. Nature of the test: P. falciparum 3D7 growth inhibition, dose response, strain 3D7 (AID 2305).

SMILES strings stand for the structures. “And” between values parts separate entries of the source, which are not always exact repeats. Identical values can stand only once.

In the case of `CCNc1cc(C(=O)N[C@@H](Cc2ccccc2)[C@H](O)CNCCc2cccc3ccccc23)cc(N2CCCC2=O)c1`, the IC50 came to 980 nM.
The figure for `COc1cccc(C(=O)NCc2cccs2)c1OCc1ccccc1` is 920 nM; for `CN(CCC(O)c1ccc(Cl)c(Cl)c1)C[C@H]1C[C@@H]1C(=O)c1ccccc1` (some centres undefined) it is 790 nM; for `CC(=O)c1cccc(Nc2nc3c(C#N)c(OCc4cc(Cl)cc(Cl)c4)ccc3[nH]2)c1` it is 870 nM.
The figure for `COc1ccc2nccc(NCC3(O)CCN(CCc4ccc5c(c4)OCCO5)CC3)c2n1` is 600 nM; for `Cc1[nH]c(C)c(-c2ccc(OCc3ccccc3)cc2)c(=O)c1Br` it is 280 nM.
In turn, `Cc1cc(O)c(CN(C)Cc2ccc3c(c2)OCCO3)cc1C(C)C` had an IC50 of 670 nM.
The result for `Brc1ccc(Nc2ccnc3cc(-c4nccs4)ccc23)cc1Oc1ccnc2cc(-c3nccs3)ccc12` reads 1060 nM.
Take `O=C(Nc1nc(-c2ccccn2)cs1)c1ccccc1COc1ccccc1`: the IC50 was 970 nM.
The result for `CN(c1ccc(NC(=O)Nc2cccc(Cl)c2)cc1)c1ccnc(N)n1` reads 630 nM; that for `CC(C)n1c(CC2CCN(CC3CCN(C(=O)/C=C/c4ccc(Cl)c(Cl)c4)CC3)CC2)nc2ccccc21`, 610 nM.
On to `CCCc1ccc(NC(=O)c2cccc(CN3CCCN(Cc4cccc(C#N)c4)CC3)c2)cc1`, for which the half-inhibitory concentration (IC50) came to 980 nM.
In the case of `O=c1ccc2ccc(O)c(O)c2o1`, the IC50 was determined as 30 nM.
The result for `O=C(Nc1ccccc1)N1CCOC(CCN2CCC(F)(F)CC2)(c2ccc(Cl)c(Cl)c2)C1` (centres undefined) reads 190 nM; that for `COc1ccc(CNC(=O)NC2CCN(c3ccnc(Nc4cc(OC)c(OC)c(OC)c4)n3)C2)cc1` (centres undefined), 950 nM; that for `O=C(NCCN1CCCC1)c1cccc(-c2ccc(-c3nc4ccc(C(F)(F)F)cc4[nH]3)cc2)c1`, 750 nM.
The result for `CCNc1cc(C)nc(Nc2ccc(F)cc2)n1` reads 800 nM.
The result for `CCC(C)NS(=O)(=O)c1ccc2nc(Nc3ccc(C)c(Cl)c3)n([C@H](C)C(C)(C)C)c2c1` (some centres undefined) reads 380 nM.
In turn, `NCCCNc1nc(Nc2ccc(C(F)(F)F)cc2F)c2c(=O)[nH]ccc2n1` returned an IC50 of 1050 nM.
The result for `Cc1ccc(NCC(=O)Nc2ccc(F)c(Cl)c2)cc1S(=O)(=O)N1CCOCC1` reads 60 nM.
The figure for `Clc1cccc(C=NNc2ccnc3ccccc23)c1` is 850 nM; for `CC1(C)N=C(N)NC(NOCC=Cc2ccccc2)=N1` it is 230 nM.
`CC(=NNC(=S)NCc1ccco1)c1ccccn1` gave a 50% inhibitory concentration (IC50) of 250 nM.
`CCCCOc1ccc(/C=C/c2ccc(-c3c(C)[nH]c(C)c(Cl)c3=O)s2)cc1` returned an IC50 of 400 nM.
The result for `CN(Cc1cccc(F)c1)C1CCN(c2cc(NC(=O)c3cccc(F)c3)ccn2)CC1` reads 1160 nM.
The figure for `NC(N)=Nc1nc(-c2ccc(NCc3ccc(CNc4cccc(-c5csc(N=C(N)N)n5)c4)cc3)cc2)cs1` is 310 nM; for `CNCCc1c(O)ccc2ccccc12` it is 800 nM.
Turning to `N=C(N)c1ccc2[nH]c(-c3cc4cc(C(=N)N)ccc4o3)cc2c1`, the IC50 was 180 nM.
The figure for `CCN(CC)CCN(Cc1ccc(-c2ccc(C(F)(F)F)cc2)cc1)C(=O)Cn1c(/C=C/c2ccco2)nc(=O)c2ccccc21` is 870 nM.
With `CCCCCN1C(=O)N(c2ccc(Cl)c(Cl)c2)C(N(O)C(=O)Nc2ccc(Cl)c(Cl)c2)C1(C)C` (centres undefined), the 50% inhibitory concentration (IC50) turned out to be 550 nM.
The figure for `O=C(/C=C/c1ccc(C(F)(F)F)cc1)NC1CCC(CN2CCC(c3c[nH]c4ccccc34)CC2)CC1` (centres undefined) is 960 nM and 370 nM.
The figure for `CN1CCN(Cc2ccc(-c3ccc4c(Nc5cc(O)c(Cl)cc5F)ccnc4c3)o2)CC1` is 110 nM.
The result for `CC(C)CNCc1ccc(-c2ccccc2CN(C(=O)NCCc2ccccc2)C2CCN(Cc3ccccc3)CC2)cc1` reads 880 nM; that for `CC(=O)Nc1ccc(CN2CCC(NC(=O)c3cc(-c4ccc(N(C)C)cc4)cs3)C2)cc1` (centres undefined), 1170 nM; that for `CCN(CC)CCN(Cc1ccc(-c2ccc(C(F)(F)F)cc2)cc1)C(=O)Cn1c(CCc2cccc(F)c2F)nc(=O)c2ccc(C)cc21`, 670 nM.
In the case of `CN(C)CCNC(=O)c1ccc(-c2cnc3ccc(NCc4ccc(Cl)c(Cl)c4)nn23)cc1`, the IC50 came out at 910 nM.
In the case of `COc1c(C2CCN(CCCCNC(=O)c3cccc(-c4ccc(C(F)(F)F)cc4)c3)CC2)ccc2c1CCCC2`, the IC50 was determined as 780 nM. The IC50 values of the last two compounds are within 1.5-fold of each other.
`CN(CCO)Cc1ccc(-c2ccc(NS(=O)(=O)c3cccc4cccnc34)cc2)cc1` had an IC50 of 790 nM. This IC50 and that of the compound before are within 1.5-fold of each other.
For the compound `COc1c(C2CCN(CCCCNC(=O)c3noc(-c4ccc(C#N)cc4)n3)CC2)ccc2c1CCCC2`, the IC50 is 780 nM.
The compound `CC(C)(C)c1ccc2nccc(Nc3cccc(O)c3)c2c1` returned an IC50 of 970 nM.
`CCn1c(SCC(=O)Nc2cc(C(F)(F)F)ccc2Cl)nc2ccccc2c1=O` yielded an IC50 of 400 nM.
Take `c1ccc(Oc2ccc(Nc3ccnc4cc(-c5cccc(CN6CCOCC6)c5)ccc34)cc2)cc1`: the IC50 is 340 nM.
The result for `Cc1ccccc1C1CCN(C2CCC(NC(=O)/C=C/c3cccc(Cl)c3Cl)CC2)CC1` (centres undefined) reads 1030 nM.
`COc1ccc(Nc2cc(C)c3cc(NC(=O)c4ccncc4)ccc3n2)cc1`: the IC50 is 910 nM.
The compound `COc1ccc2ncc(F)c(CCN3C[C@H](CNCc4cc(C#N)c5c(c4)OCCO5)[C@H](O)C3)c2n1` yielded an IC50 of 580 nM. This IC50 lies about 1.6-fold lower than the previous one.
The result for `Cc1cc(C)c(NC(=O)N2CCCN(CCCCCNC(=O)/C=C/c3ccc(Cl)c(Cl)c3)CC2)c(C)c1` reads 970 nM; that for `CN1CCN(CCCN(Cc2csc(-c3ccc(CNCc4ccccc4)cc3)n2)C(=O)Nc2cccc(Cl)c2)CC1`, 790 nM; that for `N#Cc1ccc(-c2ccc(C(=O)NCCCCN3CCC(c4ccncc4)CC3)cc2)cc1`, 810 nM.
The compound `CC(=O)Nc1ccc(S(=O)(=O)Nc2c(C)cc(Cc3cnc(N)nc3N)cc2C)cc1` displayed a half-maximal inhibitory concentration (IC50) of 1000 nM.
The result for `COc1ccc2sc(CNCCCNc3cc(=O)c4ccccc4[nH]3)c(Cl)c2c1` reads 1070 nM; that for `O=C(NCCCCCN1CCC(c2c[nH]c3ccccc23)C1)Nc1ccc(Cl)c(Cl)c1` (centres undefined), 810 nM; that for `COC(=O)c1c(C#N)c(OC)cc(O)c1CSC[C@@H](CN1CCCCC1)Nc1nc(-c2ccc([N+](=O)[O-])cc2)cs1`, 1270 nM.
The figure for `C=CCn1c(SCc2c(C)noc2C)nc2scc(-c3cccs3)c2c1=O` is 1100 nM.
The figure for `Cc1ccc(NC(=O)c2cccc(C#N)c2)cc1-c1ccc(C(=O)Nc2ccncc2)cc1` is 690 nM; for `Cc1cc(NC(=O)NCCN2CCC(NS(=O)(=O)c3cccc(Br)c3)C2)c2ccccc2n1` (centres undefined) it is 610 nM; for `COc1cccc2cc(C(=O)N[C@@H](CC(C)C)C(=O)N[C@H](/C=N/NC(=O)c3ccccc3)Cc3cnc[nH]3)oc12` it is 130 nM.
In the case of `COc1ccc(NC(=O)[C@H](Cc2ccccc2)Nc2cc(C)nc(Nc3ccccc3)n2)cc1`, the IC50 stood at 1010 nM. This IC50 is about 7.8-fold higher than that of the compound before.
Compound `O=S(=O)(NCCN1CCCC1)c1ccc(-c2ccc(CNCc3ccc(F)cc3)cc2)s1` displayed a concentration for half-maximal inhibition (IC50) of 840 nM.
`O=C(NC1CCN(c2ccnc3cc(Cl)ccc23)C1)c1ccccc1F` (centres undefined): the IC50 came to 970 nM.
On to `CN1CCN(Cc2cccc(-c3cc4nccc(Nc5ccc(Oc6ccccc6)cc5)c4cc3Cl)c2)CC1`, for which the IC50 is 730 nM.
Consider `O=C(/C=C/c1ccc(Cl)c(Cl)c1)N1CCC(CN2[C@@H]3CC[C@H]2CC(c2c[nH]c4ccccc24)C3)CC1` (some centres undefined), for which the half-maximal inhibitory concentration (IC50) worked out at 740 nM.
On to `c1ccc(CN2CCCN(c3ccc4c(c3)CCN(Cc3ccc(-c5ncc[nH]5)cc3)CC4)CC2)cc1`, for which the IC50 turned out to be 760 nM.
The figure for `NC1=NC2(CCCCC2)N(OCCCCCCN2C(=O)c3ccccc3C2=O)C(N)=N1` is 870 nM.
The figure for `CCCCCN1CCCN(Cc2cccc(NC(=O)c3ccc(Cl)c(Cl)c3)c2)CC1` is 930 nM.
The figure for `O=C(NCc1ccc(C(F)(F)F)cc1)c1cccc(-c2nnc(-c3cccc(-c4cncnc4)c3)o2)c1` is 540 nM.
Regarding `CCNc1cc(C(=O)N[C@@H](Cc2ccccc2)[C@H](O)CN[C@@H]2CCc3ccccc32)cc(N2CCCC2=O)c1`, the IC50 was determined as 1020 nM.
In turn, `CN1CCN(C(C(=O)NCc2cc(Cl)cc(Cl)c2)c2ccc(NC(=O)Nc3ccccc3)cc2)CC1` (centres undefined) registered an IC50 of 690 nM.
Compound `COCCNCc1cccc(-c2ccc(CN(C(=O)NC3CCCCC3)C3CCN(Cc4ccccc4)CC3)cc2)c1` yielded an IC50 of 760 nM. This IC50 and that of the compound before are within 1.5-fold of each other.
The result for `CC(C)CCNCc1ccc(OCc2cccc(COc3ccc(CNCCC(C)C)cc3I)c2)c(I)c1` reads 450 nM; that for `CC(C)C[C@H](NC(=O)c1ccc(F)cc1)C(=O)N[C@H](/C=N/NC(=O)c1ccccc1)CCc1ccccc1`, 810 nM; that for `CC(C)(C)c1ccc2nc(-c3ccc(/C=C/C(=O)NCc4ccc(Cl)c(Cl)c4)cc3)[nH]c2c1`, 40 nM.
The figure for `CCc1cn(CC(=O)N(CCOc2ccc(-c3ccc(C(F)(F)F)cc3)cc2)CCN(CC)CC)c(SCc2ccc(F)cc2)nc1=O` is 780 nM; for `CCCNCc1ccc(-c2ccc(CN(Cc3cnc(C)cn3)C(=O)CC#N)cc2)nc1` it is 1220 nM.
The result for `N#CCCN1CCN(Cc2cccc(-c3ccc(-c4nc5ccccc5[nH]4)s3)c2)CC1` reads 760 nM; that for `COc1cccc(NC(=O)Cn2c(C)c(C(=O)C(F)(F)F)c3ccccc32)c1`, 830 nM; that for `Fc1ccc2ncc(Cl)c(CCN3CCC(NCc4cc5c(cn4)OCCO5)CC3)c2c1`, 880 nM.
Compound `CC[C@H]1CN2CC[C@H]1C[C@H]2[C@H](O)c1cc(-c2cccc(C)c2)nc2ccc(OC)cc12` gave an IC50 of 160 nM.
Turning to `Cc1cc(-c2ccc3c(c2)CCN(CCC2CCC(NC(=O)/C=C/c4cccc(Cl)c4)CC2)CC3)on1` (centres undefined), the IC50 amounted to 590 nM.
The compound `Cc1cc(NN=Cc2ccc(Cl)cc2)c2ccccc2n1` registered an IC50 of 790 nM. The IC50 values of the last two compounds are within 1.5-fold of each other.
Turning to `CC(C)c1ccc(CN2CCC(CNC(=O)c3cc(-c4ccccc4F)cs3)C2)cc1` (centres undefined), the IC50 was determined as 990 nM.
The figure for `CC(=O)Nc1ccc(CN2CCC(N(C)c3cc(NC(=O)c4cccc(F)c4)ccn3)CC2)cc1` is 1380 nM; for `C=C[C@H]1CN2CC[C@H]1C[C@@H]2[C@@H](O)c1ccnc2ccc(OC)cc12` it is 120 nM.
Compound `CN1CCC(N(Cc2ccc(-c3ccc(C(F)(F)F)cc3)cc2)C(=O)Cn2cc(Cc3cnn(C)c3)c(=O)nc2SCc2cccc(F)c2F)CC1` yielded an IC50 of 930 nM.
The figure for `COc1ccc(-c2cccc(NC(=O)c3cccc(Cl)c3)c2)cc1CN1CCNCC1` is 800 nM.

As usually defined, the IC50 is the concentration needed to halve the response being measured. A lower IC50 goes with greater potency in that assay.

For the origin of these results see PubChem BioAssay AID2305 (GlaxoSmithKline (GSK), 2010).
